According to patent US10844077B2, “Thiazolyl-containing compounds for treating proliferative diseases” (Dana-Farber Cancer Institute, Inc., priority 2014, dated 2020):
Values joined by “and” are separate entries in the source; they are usually repeats but may differ in a detail not shown here. Identical values can stand only once.

Key:
Assay in all cases: KINATIV assay of compounds I-3 and I-9, lysate directly labeled with ATP-biotin probe (no GF)
Assay type in all cases: cell-based
kinases in BCWM.1 cells [1] = target: kinases in BCWM.1 cells (Homo sapiens, UniProt Q9UBE8); conditions: NLK; Lys2; 1 μM, 90 min; no GF
Method: (§1) The cells were harvested and lysed. […] Bound kinases were identified and quantitated by ACTIVX as described in Patricelli et al., Biochemistry, 2007, 46(2): 350-358. The compounds were tested in duplicates against duplicate or quadruplicate control samples.

kinases in BCWM.1 cells [2] = target: kinases in BCWM.1 cells (Homo sapiens, UniProt P30291); conditions: Wee1; Lys2; 1 μM, 90 min; no GF
Method: as §1

kinases in BCWM.1 cells [3] = target: kinases in BCWM.1 cells (Homo sapiens, UniProt Q16512); conditions: PKN1; Lys1; 1 μM, 90 min; no GF
kinases in BCWM.1 cells (Homo sapiens, UniProt Q16512), sequence (Q16512 2-942 limits assumed): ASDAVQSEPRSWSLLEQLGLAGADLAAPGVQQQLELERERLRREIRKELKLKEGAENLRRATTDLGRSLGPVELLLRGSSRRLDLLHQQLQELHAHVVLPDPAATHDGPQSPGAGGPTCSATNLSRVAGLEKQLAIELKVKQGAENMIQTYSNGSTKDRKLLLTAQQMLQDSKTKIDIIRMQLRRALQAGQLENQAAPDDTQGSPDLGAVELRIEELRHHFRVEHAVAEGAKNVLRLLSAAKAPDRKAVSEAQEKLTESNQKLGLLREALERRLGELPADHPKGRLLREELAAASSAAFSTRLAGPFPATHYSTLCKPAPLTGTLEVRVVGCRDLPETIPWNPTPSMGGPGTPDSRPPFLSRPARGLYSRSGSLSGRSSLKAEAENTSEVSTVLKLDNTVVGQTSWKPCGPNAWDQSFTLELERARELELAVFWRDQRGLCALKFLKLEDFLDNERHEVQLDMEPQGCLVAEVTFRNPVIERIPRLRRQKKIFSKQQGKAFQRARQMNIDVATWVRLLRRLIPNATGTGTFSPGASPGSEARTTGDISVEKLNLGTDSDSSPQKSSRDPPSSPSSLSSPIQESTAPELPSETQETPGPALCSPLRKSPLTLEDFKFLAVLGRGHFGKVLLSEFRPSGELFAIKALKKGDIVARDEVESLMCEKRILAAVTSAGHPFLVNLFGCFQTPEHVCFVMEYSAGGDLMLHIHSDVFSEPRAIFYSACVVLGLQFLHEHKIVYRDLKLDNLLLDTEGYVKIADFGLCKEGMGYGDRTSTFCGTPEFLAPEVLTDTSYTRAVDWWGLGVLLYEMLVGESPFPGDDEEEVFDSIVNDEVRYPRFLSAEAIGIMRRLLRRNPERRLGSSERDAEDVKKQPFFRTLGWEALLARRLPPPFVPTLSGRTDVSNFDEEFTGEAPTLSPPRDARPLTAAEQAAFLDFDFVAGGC
Method: as §1

kinases in BCWM.1 cells [4] = target: kinases in BCWM.1 cells (Homo sapiens, UniProt P23443); conditions: p70S6K; Lys2; 1 μM, 90 min; no GF
Method: as §1

kinases in BCWM.1 cells [5] = target: kinases in BCWM.1 cells (Homo sapiens, UniProt P21127); conditions: PITSLRE; Lys2; 1 μM, 90 min; no GF
Method: as §1

kinases in BCWM.1 cells [6] = target: kinases in BCWM.1 cells (Homo sapiens, UniProt Q9NZJ5); conditions: PEK; Lys2; 1 μM, 90 min; no GF
Method: as §1

kinases in BCWM.1 cells [7] = target: kinases in BCWM.1 cells (Homo sapiens, UniProt P53350); conditions: PLK1; Lys1; 1 μM, 90 min; no GF
Method: as §1

kinases in BCWM.1 cells [8] = target: kinases in BCWM.1 cells (Homo sapiens, UniProt Q15418); conditions: Lys2, 1 μM, 90 min, no GF
Method: as §1

kinases in BCWM.1 cells [9] = target: kinases in BCWM.1 cells (Homo sapiens, UniProt Q9NYL2); conditions: ZAK; Lys1; 1 μM, 90 min; no GF
kinases in BCWM.1 cells (Homo sapiens, UniProt Q9NYL2), sequence (Q9NYL2 2-800 limits assumed): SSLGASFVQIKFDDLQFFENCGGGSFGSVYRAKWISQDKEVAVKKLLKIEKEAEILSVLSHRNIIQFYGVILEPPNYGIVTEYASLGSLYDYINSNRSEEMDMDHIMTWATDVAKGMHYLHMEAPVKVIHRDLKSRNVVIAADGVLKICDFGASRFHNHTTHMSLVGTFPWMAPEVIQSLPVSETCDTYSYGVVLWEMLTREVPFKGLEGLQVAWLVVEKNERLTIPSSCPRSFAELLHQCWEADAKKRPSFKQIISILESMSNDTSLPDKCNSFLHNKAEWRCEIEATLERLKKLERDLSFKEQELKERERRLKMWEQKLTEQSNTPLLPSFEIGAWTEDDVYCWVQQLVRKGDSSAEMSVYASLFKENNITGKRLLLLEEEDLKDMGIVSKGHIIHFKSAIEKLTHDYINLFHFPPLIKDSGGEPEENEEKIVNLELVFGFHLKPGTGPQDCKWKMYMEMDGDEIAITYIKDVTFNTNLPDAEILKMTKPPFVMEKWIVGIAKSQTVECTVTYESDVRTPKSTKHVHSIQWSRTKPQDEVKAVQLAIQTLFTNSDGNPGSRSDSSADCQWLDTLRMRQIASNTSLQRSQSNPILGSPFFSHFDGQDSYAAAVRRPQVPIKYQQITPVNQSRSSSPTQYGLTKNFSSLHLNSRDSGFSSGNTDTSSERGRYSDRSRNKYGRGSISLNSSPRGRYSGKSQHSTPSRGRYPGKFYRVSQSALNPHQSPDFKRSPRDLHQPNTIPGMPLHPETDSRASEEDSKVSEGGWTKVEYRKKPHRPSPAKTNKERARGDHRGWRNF
Method: as §1

kinases in BCWM.1 cells [10] = target: kinases in BCWM.1 cells (Homo sapiens, UniProt P51955); conditions: NEK2; Lys2; 1 μM, 90 min; no GF
Method: as §1

kinases in BCWM.1 cells [11] = target: kinases in BCWM.1 cells (Homo sapiens, UniProt Q96BR1); conditions: SGK3; Lys1; 1 μM, 90 min; no GF
Method: as §1

kinases in BCWM.1 cells [12] = target: kinases in BCWM.1 cells (Homo sapiens, UniProt Q8TDX7); conditions: NEK7; Lys1; 1 μM, 90 min; no GF
Method: as §1

kinases in BCWM.1 cells [13] = target: kinases in BCWM.1 cells (Homo sapiens, UniProt Q14289); conditions: PYK2; Activation Loop; 1 μM, 90 min; no GF
Method: as §1

kinases in BCWM.1 cells [14] = target: kinases in BCWM.1 cells (Homo sapiens, UniProt O75385); conditions: ULK1; Lys2; 1 μM, 90 min; no GF
Method: as §1

kinases in BCWM.1 cells [15] = target: kinases in BCWM.1 cells (Homo sapiens, UniProt Q00536)
Method: as §1

kinases in BCWM.1 cells [16] = target: kinases in BCWM.1 cells (Homo sapiens, UniProt Q15349); conditions: RSK3 domain1; Lys2; 1 μM, 90 min; no GF
Method: as §1

kinases in BCWM.1 cells [17] = target: kinases in BCWM.1 cells (Homo sapiens, UniProt Q9Y2H1); conditions: NDR2; Lys2; 1 μM, 90 min; no GF
Method: as §1

kinases in BCWM.1 cells [18] = target: kinases in BCWM.1 cells (Homo sapiens, UniProt P04049); conditions: RAF1; Lys2; 1 μM, 90 min; no GF
Method: as §1

kinases in BCWM.1 cells [19] = target: kinases in BCWM.1 cells (Homo sapiens, UniProt P48426); conditions: PIP4K2A; ATP; 1 μM, 90 min; no GF
kinases in BCWM.1 cells (Homo sapiens, UniProt P48426), sequence (P48426 2-406 limits assumed): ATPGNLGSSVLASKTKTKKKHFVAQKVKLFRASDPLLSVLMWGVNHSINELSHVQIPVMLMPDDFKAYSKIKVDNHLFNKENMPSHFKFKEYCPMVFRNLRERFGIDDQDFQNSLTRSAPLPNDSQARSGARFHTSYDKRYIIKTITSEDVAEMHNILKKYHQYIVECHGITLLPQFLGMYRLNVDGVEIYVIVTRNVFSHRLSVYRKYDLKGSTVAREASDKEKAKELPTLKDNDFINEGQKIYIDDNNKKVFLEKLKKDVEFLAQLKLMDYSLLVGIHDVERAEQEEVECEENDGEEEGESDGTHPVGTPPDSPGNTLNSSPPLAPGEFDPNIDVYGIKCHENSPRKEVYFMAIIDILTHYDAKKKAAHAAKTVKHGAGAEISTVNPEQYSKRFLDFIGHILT
Method: as §1

kinases in BCWM.1 cells [20] = conditions: 1 μM, no GF
Method: as §1

kinases in BCWM.1 cells [21] = target: kinases in BCWM.1 cells (Homo sapiens, UniProt Q9Y2I7); conditions: PIP5K3; ATP; 1 μM, 90 min; no GF
kinases in BCWM.1 cells (Homo sapiens, UniProt Q9Y2I7), sequence (Q9Y2I7 2-2098 limits assumed): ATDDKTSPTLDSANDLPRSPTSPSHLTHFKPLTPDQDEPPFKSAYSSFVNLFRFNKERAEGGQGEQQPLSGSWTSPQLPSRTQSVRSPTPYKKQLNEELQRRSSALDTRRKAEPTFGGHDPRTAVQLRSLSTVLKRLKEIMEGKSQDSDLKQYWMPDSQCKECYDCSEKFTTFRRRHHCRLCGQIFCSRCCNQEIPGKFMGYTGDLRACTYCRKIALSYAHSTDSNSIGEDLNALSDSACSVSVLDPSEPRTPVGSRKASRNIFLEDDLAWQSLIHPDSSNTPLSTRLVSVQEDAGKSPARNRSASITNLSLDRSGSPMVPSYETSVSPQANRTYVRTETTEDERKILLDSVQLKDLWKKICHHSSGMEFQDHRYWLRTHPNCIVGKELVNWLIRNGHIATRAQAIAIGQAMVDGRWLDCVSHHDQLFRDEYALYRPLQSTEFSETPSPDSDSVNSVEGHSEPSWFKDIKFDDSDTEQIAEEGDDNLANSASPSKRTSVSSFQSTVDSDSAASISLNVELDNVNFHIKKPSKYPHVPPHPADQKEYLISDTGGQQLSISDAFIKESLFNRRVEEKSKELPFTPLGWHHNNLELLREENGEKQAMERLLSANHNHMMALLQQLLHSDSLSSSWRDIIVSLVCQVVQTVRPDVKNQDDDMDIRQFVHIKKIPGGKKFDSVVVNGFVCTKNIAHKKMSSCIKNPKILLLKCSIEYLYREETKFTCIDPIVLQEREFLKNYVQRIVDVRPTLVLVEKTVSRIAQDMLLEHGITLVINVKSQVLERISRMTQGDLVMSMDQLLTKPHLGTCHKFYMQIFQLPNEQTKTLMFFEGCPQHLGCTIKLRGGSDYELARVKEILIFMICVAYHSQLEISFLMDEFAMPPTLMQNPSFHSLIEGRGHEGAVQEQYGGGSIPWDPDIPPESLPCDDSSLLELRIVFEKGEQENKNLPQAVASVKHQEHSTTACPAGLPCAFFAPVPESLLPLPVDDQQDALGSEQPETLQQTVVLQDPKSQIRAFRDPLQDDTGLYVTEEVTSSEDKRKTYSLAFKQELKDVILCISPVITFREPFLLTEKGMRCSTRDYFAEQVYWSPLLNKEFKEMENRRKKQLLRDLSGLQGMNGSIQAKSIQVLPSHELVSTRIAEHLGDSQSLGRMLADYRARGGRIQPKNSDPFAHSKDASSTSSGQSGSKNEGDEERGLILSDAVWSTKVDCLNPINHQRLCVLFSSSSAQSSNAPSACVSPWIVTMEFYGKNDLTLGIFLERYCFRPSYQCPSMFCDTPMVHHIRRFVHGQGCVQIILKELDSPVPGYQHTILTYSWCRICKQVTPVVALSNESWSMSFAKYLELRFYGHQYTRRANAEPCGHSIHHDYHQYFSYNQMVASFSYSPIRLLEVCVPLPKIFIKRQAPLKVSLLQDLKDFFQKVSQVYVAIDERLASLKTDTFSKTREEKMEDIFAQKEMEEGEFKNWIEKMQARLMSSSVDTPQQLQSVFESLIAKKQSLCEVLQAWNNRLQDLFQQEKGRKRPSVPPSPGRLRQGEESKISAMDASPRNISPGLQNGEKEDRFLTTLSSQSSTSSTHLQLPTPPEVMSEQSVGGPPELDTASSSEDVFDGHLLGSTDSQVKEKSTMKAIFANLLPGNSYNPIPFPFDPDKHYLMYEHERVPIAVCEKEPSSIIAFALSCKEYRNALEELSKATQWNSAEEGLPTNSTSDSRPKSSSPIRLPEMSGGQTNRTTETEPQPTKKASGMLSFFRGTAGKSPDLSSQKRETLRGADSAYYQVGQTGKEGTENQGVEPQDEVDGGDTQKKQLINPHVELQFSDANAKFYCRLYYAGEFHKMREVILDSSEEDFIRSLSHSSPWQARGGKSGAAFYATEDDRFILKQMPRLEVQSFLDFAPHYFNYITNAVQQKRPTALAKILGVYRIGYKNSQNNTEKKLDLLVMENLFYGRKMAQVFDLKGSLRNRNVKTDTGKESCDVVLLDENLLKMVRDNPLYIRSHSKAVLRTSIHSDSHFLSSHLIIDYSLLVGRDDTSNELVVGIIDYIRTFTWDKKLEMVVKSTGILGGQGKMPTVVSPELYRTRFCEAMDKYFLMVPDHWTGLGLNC
Method: as §1

kinases in BCWM.1 cells [22] = target: kinases in BCWM.1 cells (Homo sapiens, UniProt Q8TBX8); conditions: PIP4K2C; ATP; 1 μM, 90 min; no GF
kinases in BCWM.1 cells (Homo sapiens, UniProt Q8TBX8), sequence (Q8TBX8 2-421 limits assumed): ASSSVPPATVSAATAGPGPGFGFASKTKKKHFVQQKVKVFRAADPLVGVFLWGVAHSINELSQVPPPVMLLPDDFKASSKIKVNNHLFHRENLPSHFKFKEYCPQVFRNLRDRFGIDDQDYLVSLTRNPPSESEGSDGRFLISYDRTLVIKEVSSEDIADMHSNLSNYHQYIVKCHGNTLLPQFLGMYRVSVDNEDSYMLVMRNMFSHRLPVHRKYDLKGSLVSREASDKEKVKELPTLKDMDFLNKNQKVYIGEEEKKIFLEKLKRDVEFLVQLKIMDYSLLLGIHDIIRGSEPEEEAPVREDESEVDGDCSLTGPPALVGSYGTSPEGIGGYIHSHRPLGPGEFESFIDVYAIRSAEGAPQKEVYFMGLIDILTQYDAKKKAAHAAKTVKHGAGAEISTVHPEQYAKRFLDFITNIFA
Method: as §1

kinases in BCWM.1 cells [23] = target: kinases in BCWM.1 cells (Homo sapiens, UniProt Q9Y572); conditions: RIPK3; Lys2; 1 μM, 90 min; no GF
Method: as §1

kinases in BCWM.1 cells [24] = target: kinases in BCWM.1 cells (Homo sapiens, UniProt P19525); conditions: PKR; Lys2; 1 μM, 90 min; no GF
Method: as §1

kinases in BCWM.1 cells [25] = target: kinases in BCWM.1 cells (Homo sapiens, UniProt P48736); conditions: PIK3CG; ATP; 1 μM, 90 min; no GF
Method: as §1

kinases in BCWM.1 cells [26] = target: kinases in BCWM.1 cells (Homo sapiens, UniProt Q96S38); conditions: RSKL1; ATP; 1 μM, 90 min; no GF
Method: as §1

## C=CC(=O)N1CC[C@H](Nc2nccc(Nc3ncc(C(=O)Nc4c(C)cccc4C)s3)n2)C1 [Example I-3]
Kinases in BCWM.1 cells [1]
  % change of MS signal compared to control sample: 66.2%
Kinases in BCWM.1 cells [2]
  % change of MS signal compared to control sample: −32.7%
Kinases in BCWM.1 cells [3]
  % change of MS signal compared to control sample: −3.3%
Kinases in BCWM.1 cells [4]
  % change of MS signal compared to control sample: −77.2%
Kinases in BCWM.1 cells [5]
  % change of MS signal compared to control sample: −14.1%
Kinases in BCWM.1 cells [6]
  % change of MS signal compared to control sample: −12.8%
Kinases in BCWM.1 cells [7]
  % change of MS signal compared to control sample: 0.2%
Kinases in BCWM.1 cells [8]; RSK1 domain1
  % change of MS signal compared to control sample: 9%
Kinases in BCWM.1 cells [8]; RSK1 domain2
  % change of MS signal compared to control sample: −1.9%
Kinases in BCWM.1 cells [9]
  % change of MS signal compared to control sample: 1.6%
Kinases in BCWM.1 cells [10]
  % change of MS signal compared to control sample: 20.5%
Kinases in BCWM.1 cells [11]
  % change of MS signal compared to control sample: −0.4%
Kinases in BCWM.1 cells [12]
  % change of MS signal compared to control sample: 5.7%
Kinases in BCWM.1 cells [13]
  % change of MS signal compared to control sample: 1%
Kinases in BCWM.1 cells [14]
  % change of MS signal compared to control sample: 9.9%
Kinases in BCWM.1 cells [15]
  % change of MS signal compared to control sample: 10%
Kinases in BCWM.1 cells [16]
  % change of MS signal compared to control sample: 7.6%
Kinases in BCWM.1 cells [17]
  % change of MS signal compared to control sample: 11.6%
Kinases in BCWM.1 cells [18]
  % change of MS signal compared to control sample: −18.8%
Kinases in BCWM.1 cells [19]
  % change of MS signal compared to control sample: −4.9%
Kinases in BCWM.1 cells [20]; ABL, ARG, Activation Loop
  % change of MS signal compared to control sample: 75.4% and 93.5%
Kinases in BCWM.1 cells [20]; ABL, ARG, Lys1
  % change of MS signal compared to control sample: 86.9% and 93.2%
Kinases in BCWM.1 cells [20]; AKT2, AKT3, ATP Loop
  % change of MS signal compared to control sample: −19.2% and −14.5%
Kinases in BCWM.1 cells [20]; AurA, AurB, AurC, ATP Loop
  % change of MS signal compared to control sample: 7.7% and 4.7%
Kinases in BCWM.1 cells [20]; FYN, SRC, YES, Activation Loop
  % change of MS signal compared to control sample: 87.3% and 85.7%
Kinases in BCWM.1 cells [20]; MARK3, MARK4, Lys1
  % change of MS signal compared to control sample: 2.5% and −4%
Kinases in BCWM.1 cells [20]; MER, TYRO3, Activation Loop
  % change of MS signal compared to control sample: 2.4% and 0.4%
Kinases in BCWM.1 cells [20]; MST4, YSK1, Lys2, 90 min
  % change of MS signal compared to control sample: 18.1%
Kinases in BCWM.1 cells [20]; NEK6, NEK7, Lys2, 90 min
  % change of MS signal compared to control sample: 6.4%
Kinases in BCWM.1 cells [20]; PCTAIRE2, PCTAIRE3, Lys1, 90 min
  % change of MS signal compared to control sample: −0.4%
Kinases in BCWM.1 cells [20]; PI4KA, PI4KAP2, ATP, 90 min
  % change of MS signal compared to control sample: −3.7%
Kinases in BCWM.1 cells [20]; PKACa, PKCb, Lys2, 90 min
  % change of MS signal compared to control sample: 2.4%
Kinases in BCWM.1 cells [20]; ROCK1, ROCK2, Lys2, 90 min
  % change of MS signal compared to control sample: −22.2%
Kinases in BCWM.1 cells [20]; RSK1 domain1, RSK2 domain1, RSK3 domain1, Lys2, 90 min
  % change of MS signal compared to control sample: −14.8%
Kinases in BCWM.1 cells [20]; SRPK1, SRPK2, Lys1, 90 min
  % change of MS signal compared to control sample: −3%
Kinases in BCWM.1 cells [20]; TAO1, TAO3, Lys2, 90 min
  % change of MS signal compared to control sample: 7.8%
Kinases in BCWM.1 cells [20]; Wnk1, Wnk2, Wnk3, Lys2, 90 min
  % change of MS signal compared to control sample: 14.9%
Kinases in BCWM.1 cells [20]; Wnk1, Wnk2, ATP Loop, 90 min
  % change of MS signal compared to control sample: 13.1%
Kinases in BCWM.1 cells [20]; ZC1/HGK, ZC2/TNIK, ZC3/MINK, Lys2, 90 min
  % change of MS signal compared to control sample: 2.7%
Kinases in BCWM.1 cells [20]; p38d, p38g, Lys2, 90 min
  % change of MS signal compared to control sample: 5.7%
Kinases in BCWM.1 cells [21]
  % change of MS signal compared to control sample: 6.5%
Kinases in BCWM.1 cells [22]
  % change of MS signal compared to control sample: −14.1%
Kinases in BCWM.1 cells [23]
  % change of MS signal compared to control sample: 13.4%
Kinases in BCWM.1 cells [24]
  % change of MS signal compared to control sample: −3.6%
Kinases in BCWM.1 cells [25]
  % change of MS signal compared to control sample: −9.6%
Kinases in BCWM.1 cells [26]
  % change of MS signal compared to control sample: −17%
